The record followed here is patent publication US9085608B2, “Treatment of biofilms” (LYTIX BIOPHARMA AS, priority 2008, dated 2015).

A word on the MIC: it is the lowest concentration found to suppress growth. Higher therefore signals a less susceptible organism.

Holding throughout (assay type): cell-based
In assay [1] the test system is 8-16 S. epidermidis. The note with it: planctonic. The text has this: (§1) Minimum Inhibitory Concentration (MIC) on Planctonic Bacteria
Assay [2] deals with 51-07 S. haemolyticus. The note with it: planctonic.
Excerpt: as §1

Assay [3] concerns PIA 90 S. aureus. The note with it: planctonic.
Excerpt: as §1

Assay [4] has as its system 42-77 S. epidermidis. The note with it: planctonic.
Excerpt: as §1

The test system of assay [5] is 51-03 S. haemolyticus. Particulars: planctonic.
Excerpt: as §1

Assay [6] relates to PIA 9 S. aureus. The note with it: planctonic.
Excerpt: as §1

Assay [7] relates to 42-77 S. epidermidis biofilm. The experiment in a line: MBIC, biofilm survival rate by Alamar blue, Example 3. The note with it: 24 h. The method, then:
(§2) Biofilm formation was induced in 96-well flat bottom microtitre plates (Nunclon Surface, NUNC). First, overnight cultures were diluted 1:100 in MHIIB (S. epidermidis and S. haemolyticus) or tryptic soy broth (TSB) with 5% glucose and 5% NaCl (S. aureus). […] of this bacterial suspension (10^7 cfu/ml) was added to each well and incubated for 24 h at 37° C. After 24 h the wells were carefully washed twice with phosphate-buffered saline (PBS) to remove planktonic bacteria. The washing procedure was carefully evaluated by measuring metabolic activity of the PBS with the Alamar blue method, described in detail below.
(§3) The washed biofilms were subjected to treatment with the Compounds at different concentrations.
(§4) Trifluoroacetate salts of the compounds were dissolved in sterile water and diluted to 5 mg/L, 50 mg/L and 500 mg/L in MHIIB. […] of the Compounds, in different concentrations, were added to each well and incubated for 24 h at 37° C. Positive controls were untreated biofilms only added 200 MHIIB. Negative controls were only 200 μl MHIIB, with no bacteria added.
(§5) The metabolic activity of the biofilm was quantified with a slightly modified method previously described by Pettit et al. Antimicrob. Agents Chemother. 2005; 49: 2612-7. Briefly, after the 24 h incubation with antimicrobial agents the wells were again washed twice with PBS and then added […] MHIIB with 5% Alamar blue (AB; Biosource, Camarillo, Calif., USA). AB is a redox indicator which both fluoresces and changes colour in response to chemical reduction. The extent of reduction is a reflection of bacterial cell viability. After 1 h incubation at 37° C., absorbance was recorded at 570 and 600 nm using Versamax tuneable microplate reader (Molecular Devices, Sunnyvale, Calif., USA). All assays were performed 3 times with 8 parallels. The highest and lowest value of each run was excluded from the analyses, and the remaining 18 values were averaged.
On the technique in general: Alamar Blue is a resazurin reagent that responds to reducing activity.

Assay [8] has as its system 8-16 S. epidermidis biofilm. The description is as above. The note with it: 24 h. The method, then:
as §2, §3, §4, §5

Assay [9] has as its system 51-07 S. haemolyticus biofilm. The description is as above. Particulars: 24 h. The protocol:
as §2, §3, §4, §5

Assay [10] has as its system PIA 9 S. aureus biofilm. Described as above. The note with it: 24 h. The method, then:
as §2, §3, §4, §5

The test system of assay [11] is 51-03 S. haemolyticus biofilm. The description is as above. The note with it: 24 h. The method, then:
as §2, §3, §4, §5

Assay [12] deals with PIA 90 S. aureus biofilm. The description is as above. Particulars: 24 h. The protocol:
as §2, §3, §4, §5

In brackets after ≈: the same amount, converted by molar mass. Residues, ends and D or L forms follow the SMILES beside them. *: point of attachment. NHPhenethyl = c1ccc(CCN*)cc1

Consider `N=C(N)NCCC[C@H](NC(=O)[C@H](Cc1c[nH]c2ccccc12)NC(=O)[C@H](Cc1c[nH]c2ccccc12)NC(=O)[C@H](CCCNC(=N)N)NC(=O)[C@@H](N)Cc1c[nH]c2ccccc12)C(=O)NCCc1ccccc1` [ME 172, W-R-W-W-R-NH-CH2CH2Ph] (H-WRWWR-NHPhenethyl), for which the MIC in [1] was 16 µg/mL (≈ 16.1 µM); in [2] it was 8 µg/mL (≈ 8.06 µM); in assay [3] it was 32 µg/mL (≈ 32.3 µM); in assay [4], 16 µg/mL (≈ 16.1 µM); in assay [5], 8 µg/mL (≈ 8.06 µM); in assay [6], 16 µg/mL (≈ 16.1 µM). Further, the “MBIC measured as survival rate” value in assay [7] (5 μg/ml) worked out at 100%; in assay [7] (50 μg/ml), 85%; in [7] (500 μg/ml), 10%; in [8] (5 μg/ml), 100%; in assay [8] (50 μg/ml), 80%; in [8] (500 μg/ml), 20%. Further, the “MBIC measured as survival rate” value in [9] (5 μg/ml) was found to be 100%; in assay [9] (50 μg/ml), 41%; in assay [9] (500 μg/ml) it was 12%; in assay [10] (5 μg/ml) it was 100%; in assay [10] (50 μg/ml) it was 100%; in [10] (500 μg/ml), 18%. Further, the “MBIC measured as survival rate” value amounted to 100% in assay [11] (5 μg/ml); 6% in [11] (50 μg/ml); 8% in [11] (500 μg/ml); 100% in [12] (5 μg/ml); 55% in assay [12] (50 μg/ml); 10% in assay [12] (500 μg/ml).
On to `N=C(N)NCCC[C@H](NC(=O)[C@H](Cc1c[nH]c2ccccc12)NC(=O)[C@H](Cc1c[nH]c2ccccc12)NC(=O)[C@@H](N)CCCNC(=N)N)C(=O)NCCc1ccccc1` [ME 171 B, R-W-W-R-NH-CH2CH2Ph] (H-RWWR-NHPhenethyl), for which the MIC in assay [1] came to 64 µg/mL (≈ 79.4 µM); in [2], 32 µg/mL (≈ 39.7 µM); in assay [3], 128 µg/mL (≈ 159 µM); in [4] it was 64 µg/mL (≈ 79.4 µM); in assay [5] it was 32 µg/mL (≈ 39.7 µM); in assay [6], 128 µg/mL (≈ 159 µM). Further, the “MBIC measured as survival rate” value in assay [7] (5 μg/ml) is listed as 100%; in assay [7] (50 μg/ml) it was 90%; in assay [7] (500 μg/ml) it was 10%; in assay [8] (5 μg/ml) it was 100%; in [8] (50 μg/ml), 70%; in assay [8] (500 μg/ml), 4%. The “MBIC measured as survival rate” value in assay [9] (5 μg/ml) is recorded as 100%; in [9] (50 μg/ml), 60%; in assay [9] (500 μg/ml), 12%; in assay [10] (5 μg/ml) it was 100%; in assay [10] (50 μg/ml), 100%; in assay [10] (500 μg/ml) it was 90%. Besides, the “MBIC measured as survival rate” value stood at 100% in [11] (5 μg/ml); 8% in assay [11] (50 μg/ml); 9% in [11] (500 μg/ml); 100% in assay [12] (5 μg/ml); 80% in [12] (50 μg/ml); 5% in assay [12] (500 μg/ml).
